From patent US12161722B2, “Bifunctional heterocyclic compound having BTK degradation function via ubiquitin proteasome pathway, and use thereof” (KOREA RESEARCH INSTITUTE OF CHEMICAL TECHNOLOGY, priority 2021, dated 2024)

Biological target: T1, WT BTK protein (Homo sapiens, UniProt Q06187)
T1 construct: measured for intracellular BTK protein levels by Western blotting; endogenous in cells; host or cells: TMD-8 or RAMOS cells
Test: BTK protein degradation assay (Western blotting), WT BTK
Type: cell-based
Conditions: concentration range accounting for 50% degradation of WT BTK protein, TMD-8 or RAMOS cells, 24 hours
Method: TMD-8, RAMOS, or 293T BTK MUT (C481S) cells were treated with the synthesized compounds and measured for intracellular BTK protein levels by Western blotting. The protocol of the experiment using TMD-8 cells is as follows.
TMD-8 cells were resuspended in an RPMI1640 medium (Hyclone, SH30027.01, 10% FBS (Hyclone, SV30207.02), 1% penicillin-streptomycin (Welgene, LS 202-02) and the cell suspension was seeded at a density of 1×10^6 cells/mL in an amount of 1 mL per well into 12-well plates.
The 12-well plates were treated as follows. A 10 mM stock was 1/10 diluted in series with DMSO ([…]) to form final concentrations of 10, 1, 0.1, 0.01, 0.001, and 0.0001 mM. The compounds with such concentrations were applied to cells, followed by harvesting the cells 24 hours later. For a negative control, a 1/10 dilution of DMSO in the medium (3 mL DMSO+27 mL medium) was used.
The 1-mL cell culture in each well was passed many times through a pipette and then transferred into a 1.5-mL microtube before centrifugation (500 g, 5 min, 4° C.). The supernatant was discarded and the cell pellet was washed with PBS. After centrifugation (500 g, 5 min, 4° C.) again, the supernatant was discarded and the cell pellet was taken.
A lysis buffer was prepared as follows. RIPA buffer (Biosesang, RC2038-050-00)+0.5 mM PMSF (SIGMA, P7626)+1×Protease/Phosphatase Inhibitor (Cell signaling, 5872S) was added in an amount […] per well and left for 30 minutes on ice (vortexing at 0 and 30 minutes) before sonication (5 cycles of pulse for 10 seconds and rest for 30 seconds, 70% amplification). The supernatant obtained by centrifugation (15000 g, 15 min, 4° C.) was transferred into a new microtube. Cells in each well of 96-well plates were 1/2 diluted with the RIPA buffer and incubated at 37° C. for 30 minutes with […] of a 50:1 mixture of BCA reagents A and B in BCA Protein Assay Kit (iNtRON, 21071). After being cooled for 10 minutes, the 96-well plates were measured for absorbance at 562 nm on the BioTek, SYNERGY H1 microplate reader. Samples were prepared by protein quantification based on the absorbance measurements and then boiled at 70° C. for 10 minutes. The sample buffer used in the case was prepared by mixing a NuPAGE or a Bolt 4× sample buffer (Invitrogen) and its 10× sample reducing agent depending on the gel to be used, and protein dilution was made in a RIPI buffer.
The samples were loaded in the same amount into a NuPAGE or Bolt Bis-tris 4-12% gradient gel and allowed to run therein (200 V, 35 minutes). The separated proteins were transferred onto a […] NC membrane, using Trans-blot Turbo (BIO-RAD) (1.3 A constant, 25V limit, 15 minutes). The membrane was blocked at room temperature for 1 hour with skim milk or Intercept Blocking Buffer (LI-COR, 927-60001):0.1% TBST=1:1. The membrane was incubated with Anti BTK Rabbit (1:1,000 in 5% skim milk/0.2% TBST, size: 77 kDa, Cell signaling Technology) at 4° C. overnight O/N or at room temperature for 2 hours and with Anti GAPDH Rabbit (1:10,000 in 5% BSA/0.2% TBST, size: 36 kDa, GENETEX) and Anti β-actin mouse (1:10,000 in 5% BSA/0.2% TBST, RT, size: 43 kDa, GENETEX) at room temperature for 1 or 3 hours. Then, the membrane was washed three times with 0.5% TBST for 5 minutes each time before incubation with the second antibody Anti-Rabbit IgG (1:5,000 in 5% Skim milk/TBST, CST), IRDye® 800CW Goat anti-Rabbit IgG Secondary Antibody (1:10,000 in 5% skim/TBST, RT 45 min), or IRDye® 680RD Goat anti-Mouse IgG Secondary Antibody (1:10,000 in 5% skim/TBST, RT 45 min) for 45 minutes at room temperature in a rocker. The membrane was washed five times with 0.5% TBST for 5 minutes in each time, followed by detection with LI-COR, Odyssey. In this regard, the detection proceeded, as it was, for house-keeping genes while using SuperSignal West Pico PLUS Chemiluminescent Substrate or SuperSignal West femto Maximum Sensitivity Substrate for BTK detection. […]

T1 sequence (Q06187 whole entry): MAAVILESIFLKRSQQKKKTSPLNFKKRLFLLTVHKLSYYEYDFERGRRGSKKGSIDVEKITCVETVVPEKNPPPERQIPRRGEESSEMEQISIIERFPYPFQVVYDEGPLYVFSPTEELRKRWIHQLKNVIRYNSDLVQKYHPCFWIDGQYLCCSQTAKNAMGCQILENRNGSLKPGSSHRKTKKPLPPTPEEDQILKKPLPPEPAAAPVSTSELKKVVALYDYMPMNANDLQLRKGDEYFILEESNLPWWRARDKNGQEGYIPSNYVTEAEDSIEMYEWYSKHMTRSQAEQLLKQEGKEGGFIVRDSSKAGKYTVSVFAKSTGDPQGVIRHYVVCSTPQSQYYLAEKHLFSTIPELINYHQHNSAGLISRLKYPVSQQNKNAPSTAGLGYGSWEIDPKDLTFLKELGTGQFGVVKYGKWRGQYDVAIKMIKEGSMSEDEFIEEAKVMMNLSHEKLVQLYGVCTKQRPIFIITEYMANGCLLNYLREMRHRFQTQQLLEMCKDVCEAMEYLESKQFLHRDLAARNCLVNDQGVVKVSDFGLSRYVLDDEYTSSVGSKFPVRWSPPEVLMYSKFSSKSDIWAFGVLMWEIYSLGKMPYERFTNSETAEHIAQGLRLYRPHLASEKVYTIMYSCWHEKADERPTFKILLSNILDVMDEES

Compound | DC50 [µM]
Cc1cccc(C)c1Nc1nn(C)c2nc(Nc3cccc(CNCC4CCN(C(=O)C5CCN(c6ccc7c(c6)C(=O)N(C6CCC(=O)NC6=O)C7=O)CC5)CC4)c3)ncc12 (stereo not shown) [Compound 42, 5-(4-(4-(((3-((3-((2,6-Dimethylphenyl)amino)-1-methyl-1H-pyrazolo[3,4-d]pyrimidin-6-yl)amino)benzyl)amino)methyl)piperidine-1-carbonyl)piperidin-1-yl)-2-(2,6-dioxopiperidin-3-yl)isoindoline-1,3-dione] | 0.0001 to 0.01
Cc1cccc(C)c1Nc1nn(C)c2nc(Nc3ccc(C4CCN(C(=O)CN5CCN(c6ccc7c(c6)C(=O)N(C6CCC(=O)NC6=O)C7=O)CC5)CC4)c(F)c3)ncc12 (stereo not shown) [Compound 226, 5-(4-(2-(4-(4-((3-((2,6-Dimethylphenyl)amino)-1-methyl-1H-pyrazolo[3,4-d]pyrimidin-6-yl)amino)-2-fluorophenyl)piperidin-1-yl)-2-oxoethyl)piperazin-1-yl)-2-(2,6-dioxopiperidin-3-yl)isoindoline-1,3-dione] | 0.0001 to 0.01
Cc1cccc(C)c1Nc1nn(C)c2nc(Nc3ccc4c(c3)CN(CC3CCN(C(=O)CNc5ccc6nnn(C7CCC(=O)NC7=O)c(=O)c6c5)CC3)CC4)ncc12 (stereo not shown) [Compound 52, 3-(6-((2-(4-((7-((3-((2,6-Dimethylphenyl)amino)-1-methyl-1H-pyrazolo[3,4-d]pyrimidin-6-yl)amino)-3,4-dihydroisoquinolin-2 (1H)-yl)methyl)piperidin-1-yl)-2-oxoethyl)amino)-4-oxobenzo[d][1,2,3]triazin-3 (4H)-yl)piperidin-2,6-one] | 0.0001 to 0.01
Cc1cccc(C)c1Nc1nn(C)c2nc(Nc3ccc4c(c3)CN(CCNc3ccc5c(c3)C(=O)N(C3CCC(=O)NC3=O)C5=O)CC4)ncc12 (stereo not shown) [Compound 123, 5-((2-(7-((3-((2,6-Dimethylphenyl)amino)-1-methyl-1H-pyrazolo[3,4-d]pyrimidin-6-yl)amino)-3,4-dihydroisoquinolin-2 (1H)-yl)ethyl)amino)-2-(2,6-dioxopiperidin-3-yl)isoindoline-1,3-dione] | 0.01 to 1
Cc1cccc(C)c1Nc1nn(C)c2nc(Nc3ccc4c(c3)CN(CC3CCN(C(=O)CNc5ccc6c(c5)CN(C5CCC(=O)NC5=O)C6=O)CC3)CC4)ncc12 (stereo not shown) [Compound 80, 3-(5-((2-(4-((7-((3-((2,6-Dimethylphenyl)amino)-1-methyl-1H-pyrazolo[3,4-d]pyrimidin-6-yl)amino)-3,4-dihydroisoquinolin-2 (1H)-yl)methyl)piperidin-1-yl)-2-oxoethyl)amino)-1-oxoisoindolin-2-yl)piperidin-2,6-one] | 0.0001 to 0.01
Cc1cccc(C)c1Nc1nn(C)c2nc(Nc3ccc(C4CCN(C(=O)C5(F)CCN(c6ccc7c(c6)C(=O)N(C6CCC(=O)NC6=O)C7=O)CC5)CC4)cc3)ncc12 (stereo not shown) [Compound 253, 5-(4-(4-(4-((3-((2,6-dimethylphenyl)amino)-1-methyl-1H-pyrazolo[3,4-d]pyrimidin-6-yl)amino)phenyl)piperidine-1-carbonyl)-4-fluoropiperidin-1-yl)-2-(2,6-dioxopiperidin-3-yl)isoindoline-1,3-dione] | 0.0001 to 0.01
Cc1cccc(C)c1Nc1nn(C)c2nc(Nc3ccc4c(c3)CN(C(=O)C3CCN(c5ccc6c(=O)n(C7CCC(=O)NC7=O)nnc6c5)CC3)CC4)ncc12 (stereo not shown) [Compound 69, 3-(7-(4-(7-((3-((2,6-Dimethylphenyl)amino)-1-methyl-1H-pyrazolo[3,4-d]pyrimidin-6-yl)amino)-1,2,3,4-tetrahydroisoquinoline-2-carbonyl)piperidin-1-yl)-4-oxobenzo[d][1,2,3]triazin-3 (4H)-yl)piperidin-2,6-one] | 0.01 to 1
Cc1cccc(C)c1Nc1nn(C)c2nc(Nc3ccc4c(c3)CN(CC3CN(C(=O)CNc5ccc6c(c5)C(=O)N(C5CCC(=O)NC5=O)C6=O)C3)CC4)ncc12 (stereo not shown) [Compound 51, 5-((2-(3-((7-((3-((2,6-Dimethylphenyl)amino)-1-methyl-1H-pyrazolo[3,4-d]pyrimidin-6-yl)amino)-3,4-dihydroisoquinolin-2 (1H)-yl)methyl)azetidin-1-yl)-2-oxoethyl)amino)-2-(2,6-dioxopiperidin-3-yl)isoindoline-1,3-dione] | 0.0001 to 0.01
Cc1cccc(C)c1Nc1nn(C)c2nc(Nc3ccc(N4CCN(CC5CN(c6ccc7c(c6)C(=O)N(C6CCC(=O)NC6=O)C7=O)C5)CC4)cc3)ncc12 (stereo not shown) [Compound 181, 5-(3-((4-(4-((3-((2,6-Dimethylphenyl)amino)-1-methyl-1H-pyrazolo[3,4-d]pyrimidin-6-yl)amino)phenyl)piperazin-1-yl)methyl)azetidin-1-yl)-2-(2,6-dioxopiperidin-3-yl)isoindoline-1,3-dione] | 0.0001 to 0.01

The next lines start with the values.

DC50 [µM] | Compound
0.0001 to 0.01 | Cc1cccc(C)c1Nc1nn(C)c2nc(Nc3ccc4c(c3)CN(C(=O)C3(F)CCN(C(=O)COc5ccc6c(c5)C(=O)N(C5CCC(=O)NC5=O)C6=O)CC3)CC4)ncc12 (stereo not shown) [Compound 248, 5-(2-(4-(7-((3-((2,6-Dimethylphenyl)amino)-1-methyl-1H-pyrazolo[3,4-d]pyrimidin-6-yl)amino)-1,2,3,4-tetrahydroisoquinoline-2-carbonyl)-4-fluoropiperidin-1-yl)-2-oxoethoxy)-2-(2,6-dioxopiperidin-3-yl)isoindoline-1,3-dione]
0.0001 to 0.01 | Cc1cccc(C)c1Nc1nn(C)c2nc(Nc3ccc4c(c3)CN(C(=O)C3(F)CCN(C(=O)CNc5ccc6c(c5)C(=O)N(C5CCC(=O)NC5=O)C6=O)CC3)CC4)ncc12 (stereo not shown) [Compound 247, 5-((2-(4-(7-((3-((2,6-Dimethylphenyl)amino)-1-methyl-1H-pyrazolo[3,4-d]pyrimidin-6-yl)amino)-1,2,3,4-tetrahydroisoquinoline-2-carbonyl)-4-fluoropiperidin-1-yl)-2-oxoethyl)amino)-2-(2,6-dioxopiperidin-3-yl)isoindoline-1,3-dione]
0.01 to 1 | Cc1cccc(C)c1Nc1nn(C)c2nc(Nc3ccc4c(c3)CN(C(=O)CNc3ccc5c(c3)C(=O)N(C3CCC(=O)NC3=O)C5=O)CC4)ncc12 (stereo not shown) [Compound 72, 5-((2-(7-((3-((2,6-Dimethylphenyl)amino)-1-methyl-1H-pyrazolo[3,4-d]pyrimidin-6-yl)amino)-3,4-dihydroisoquinolin-2 (1H)-yl)-2-oxoethyl)amino)-2-(2,6-dioxopiperidin-3-yl)isoindoline-1,3-dione]
0.0001 to 0.01 | Cc1cccc(C)c1Nc1nn(C)c2nc(Nc3ccc4c(c3)CN(CC3(O)CCN(c5ccc6c(c5)C(=O)N(C5CCC(=O)NC5=O)C6=O)CC3)CC4)ncc12 (stereo not shown) [Compound 130, 5-(4-((7-((3-((2,6-dimethylphenyl)amino)-1-methyl-1H-pyrazolo[3,4-d]pyrimidin-6-yl)amino)-3,4-dihydroisoquinolin-2 (1H)-yl)methyl)-4-hydroxypiperidin-1-yl)-2-(2,6-dioxopiperidin-3-yl)isoindoline-1,3-dione]
